Values joined by “and” are separate entries in the source; they are usually repeats but may differ in a detail not shown here. Identical values can stand only once.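 Dose response: 5 concentrations. Exposure: 48 h. Format: 96-well plates. Endpoint: linear interpolation; highest concentration if not reached. GI50 = concentration required for 50% inhibition of growth. Definition used: TGI = concentration required for complete inhibition of growth.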
Legend:
Experiment in all cases: growth of human tumour cells (NCI), 48 h
[1] = tested on: COLO 205 colon
[2] = tested on: SNB-75 CNS
[3] = tested on: K-562 leukemia
[4] = tested on: SK-MEL-2 melanoma
[5] = tested on: RPMI-8226 leukemia
[6] = tested on: HOP-92 NSCLC
[7] = tested on: TK-10 renal
[8] = tested on: OVCAR-3 ovarian
[9] = tested on: HOP-62 NSCLC
[10] = tested on: MCF7 breast
[11] = tested on: A549 NSCLC
[12] = tested on: EKVX NSCLC
[13] = tested on: HS 578T breast
[14] = tested on: HCT-15 colon
[15] = tested on: NCI-H23 lung
[16] = tested on: UACC-62 melanoma
[17] = tested on: SK-MEL-28 melanoma
[18] = tested on: HT29 colon
[19] = tested on: SNB-19 CNS
[20] = tested on: CCRF-CEM leukemia
[21] = tested on: M14 melanoma
[22] = tested on: CAKI-1 renal
[23] = tested on: RXF 393 renal
[24] = tested on: 786-0 renal
[25] = tested on: DU-145 prostate
[26] = tested on: NCI-H460 lung
[27] = tested on: HL-60(TB) leukemia
[28] = tested on: SF-295 CNS
[29] = tested on: UO-31 renal
[30] = tested on: HCT-116 colon
[31] = tested on: NCI-H522 lung
[32] = tested on: HCC-2998 colon
[33] = tested on: PC-3 prostate
[34] = tested on: T-47D breast
[35] = tested on: U251 CNS
[36] = tested on: LOX IMVI melanoma
[37] = tested on: OVCAR-5 ovarian
[38] = tested on: IGROV1 ovarian
[39] = tested on: NCI-H226 lung
[40] = tested on: SF-539 CNS
[41] = tested on: SF-268 CNS
[42] = tested on: A498 renal
[43] = tested on: SK-MEL-5 melanoma
[44] = tested on: NCI/ADR-RES ovarian
[45] = tested on: BT-549 breast
[46] = tested on: KM12 colon
[47] = tested on: SN12C renal
[48] = tested on: SR leukemia
[49] = tested on: SK-OV-3 ovarian
[50] = tested on: MDA-MB-231 breast
[51] = tested on: OVCAR-8 ovarian
[52] = tested on: UACC-257 melanoma
[53] = tested on: ACHN renal
[54] = tested on: MOLT-4 leukemia
[55] = tested on: MALME-3M melanoma
[56] = tested on: SW-620 colon
[57] = tested on: MDA-MB-435
[58] = tested on: OVCAR-4 ovarian

COc1ccc(F)c(F)c1C(=O)c1cnc(NC2CCN(S(C)(=O)=O)CC2)nc1N
GI50 [1]: 253 nM and 150 nM
TGI [1]: 1690 nM and 1480 nM
GI50 [2]: 1260 nM and 1090 nM
TGI [2]: 3620 nM and 2730 nM
GI50 [3]: 2050 nM and 1950 nM
TGI [3]: > 100000 nM
GI50 [4]: 1070 nM and 1150 nM
TGI [4]: 2960 nM and 3480 nM
GI50 [5]: 791 nM and 353 nM
TGI [5]: 4980 nM and 5570 nM
GI50 [6]: 250 nM and 430 nM
TGI [6]: 3460 nM and 5530 nM
GI50 [7]: 493 nM and 333 nM
TGI [7]: > 20300 nM
GI50 [8]: 961 nM and 588 nM
TGI [8]: 5260 nM and 6560 nM
GI50 [9]: 959 nM and 450 nM
TGI [9]: > 23400 nM and 7930 nM
GI50 [10]: 67.4 nM and 45.8 nM
TGI [10]: > 100000 nM
GI50 [11]: 422 nM and 397 nM
TGI [11]: > 26500 nM
GI50 [12]: 923 nM
TGI [12]: 7730 nM
GI50 [13]: 1520 nM and 695 nM
TGI [13]: 6120 nM and > 8400 nM
GI50 [14]: 484 nM and 361 nM
TGI [14]: > 100000 nM
GI50 [15]: 814 nM and 397 nM
TGI [15]: 5280 nM and 3300 nM
GI50 [16]: 655 nM and 284 nM
TGI [16]: 2770 nM and 2450 nM
GI50 [17]: 1060 nM and 412 nM
TGI [17]: > 27200 nM and 4780 nM
GI50 [18]: 420 nM and 341 nM
TGI [18]: 7680 nM and > 9060 nM
GI50 [19]: 576 nM and 445 nM
TGI [19]: > 100000 nM
GI50 [20]: 431 nM and 237 nM
TGI [20]: > 8340 nM
GI50 [21]: 1480 nM and 917 nM
TGI [21]: 9660 nM and > 10000 nM
GI50 [22]: 1050 nM and 232 nM
TGI [22]: > 100000 nM
GI50 [23]: 286 nM and 149 nM
TGI [23]: 1480 nM and 423 nM
GI50 [24]: 666 nM and 388 nM
TGI [24]: > 27000 nM
GI50 [25]: 1700 nM and 623 nM
TGI [25]: > 71200 nM
GI50 [26]: 165 nM and 117 nM
TGI [26]: > 100000 nM
GI50 [27]: 67.2 nM
TGI [27]: 4610 nM
GI50 [28]: 693 nM and 352 nM
TGI [28]: > 100000 nM
GI50 [29]: 779 nM and 360 nM
TGI [29]: 6960 nM and > 9240 nM
GI50 [30]: 257 nM and 183 nM
TGI [30]: > 100000 nM
GI50 [31]: 2380 nM and 1620 nM
TGI [31]: 6970 nM and 5860 nM
GI50 [32]: 961 nM and 987 nM
TGI [32]: > 26800 nM and 5650 nM
GI50 [33]: 385 nM and 411 nM
TGI [33]: 5440 nM and 5920 nM
GI50 [34]: 1040 nM and 678 nM
TGI [34]: 11800 nM and > 8010 nM
GI50 [35]: 484 nM and 371 nM
TGI [35]: > 100000 nM
GI50 [36]: 848 nM and 291 nM
TGI [36]: > 100000 nM
GI50 [37]: 728 nM and 251 nM
TGI [37]: > 100000 nM
GI50 [38]: 1060 nM and 387 nM
TGI [38]: > 100000 nM
GI50 [39]: 1280 nM and 408 nM
TGI [39]: > 24400 nM
GI50 [40]: 536 nM and 406 nM
TGI [40]: 3130 nM and 3070 nM
GI50 [41]: 1140 nM and 527 nM
TGI [41]: 7160 nM and > 7590 nM
GI50 [42]: 445 nM
TGI [42]: 2080 nM
GI50 [43]: 369 nM and 399 nM
TGI [43]: 4640 nM and > 7120 nM
GI50 [44]: 2630 nM and 1650 nM
TGI [44]: > 100000 nM
GI50 [45]: 1520 nM and 1020 nM
TGI [45]: 5860 nM and 5520 nM
GI50 [46]: 402 nM and 306 nM
TGI [46]: > 29800 nM
GI50 [47]: 940 nM and 477 nM
TGI [47]: > 100000 nM
GI50 [48]: 188 nM and 114 nM
GI50 [49]: 4350 nM and 4240 nM
TGI [49]: > 100000 nM
GI50 [50]: 805 nM and 262 nM
GI50 [51]: 1180 nM and 580 nM
TGI [51]: > 100000 nM
GI50 [52]: 1440 nM and 1610 nM
TGI [52]: 6380 nM and 8940 nM
GI50 [53]: 439 nM and 272 nM
TGI [53]: > 100000 nM
GI50 [54]: 390 nM and 321 nM
TGI [54]: > 100000 nM
GI50 [55]: 1040 nM and 1490 nM
TGI [55]: 4790 nM and 5380 nM
GI50 [56]: 183 nM and 108 nM
TGI [56]: > 100000 nM
GI50 [57]: 419 nM and 309 nM
TGI [57]: 3720 nM and > 4890 nM
GI50 [58]: 1440 nM and 1410 nM
TGI [58]: > 27900 nM

From PubChem BioAssay (NCI)
